This assay deals with CEM cells HIV-1 protection, formazan growth assay. Nature of the assay: NCI AIDS Antiviral Assay. The settings on record: for IC50: measured here: growth of uninfected CEM cells. An outline of the steps:
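Protection of CEM cells against HIV-1 measured as cell growth via soluble formazan read-out, with five concentrations tested on both infected and uninfected cells; failure to protect may reflect toxicity.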

70 compounds from PubChem BioAssay AID179 (DTP/NCI, 2004) can be followed below.

“And” between values parts separate entries of the source, which are not always exact repeats. Identical values can stand only once. The source made the active and inactive calls.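 How the source made its calls: active means compounds giving half or more protection of infected cells from virus-caused growth loss, again on retest; inactive means the rest.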

Consider `C=C1C(C)C2C(Cc3ccccc3)NC(=O)C23C(OC(C)=O)C=CC(C)(O)C(=O)C(C)C/C=C/C3C1O` (stereo not given), for which the EC50 – broadly, the concentration that produces a half-maximal response – was > 20 µM and the IC50 (as a rule, the concentration that inhibits the measured activity by half) is 0.17 µM.
With `CC(C)C(NC(=O)Oc1ccccc1)C(=O)NC1c2c(Br)sc(Br)c2C(=O)C1O` (stereo not given), the EC50 is > 200 µM and the IC50 turned out to be 11.7 µM.
Turning to `NC1CC(=O)c2sc(I)cc21` (stereo not given), the EC50 is > 200 µM and the 50% inhibitory concentration (IC50) was 102 µM.
As for `CCOC(=O)/C(C1=N[C@H](C(=O)OCC)CS1)=C(\C)O`, the EC50 was > 631 µM and the IC50 was > 631 µM.
On to `CCC(=O)OC1C(OC2C(C)C(OC3CC(C)(OC)C(O)C(C)O3)C(C)C(=O)OC(CC)C(C)(O)C(O)C(C)C(=O)C(C)CC2(C)O)OC(C)CC1N(C)C` (stereo not given), for which the EC50 was > 200 µM and the IC50 was found to be 70.8 µM.
The like results for `CN/N=C(/CC(=O)c1sc(NNC(C)=O)nc1C)C(=O)Nc1ccc(OC)cc1OC` were, in that order, > 79.4 µM and > 79.4 µM.
Regarding `CN1C2(c3ccccc3)C(C(=O)c3ccccc3)=C(C(=O)c3ccccc3)C1(c1ccccc1)c1c(-c3ccccc3)sc(-c3ccccc3)c12`, the outcome was inactive.
Turning to `C/C(C=C(C#N)C#N)=C\c1ccc([N+](=O)[O-])cc1`, the EC50 was > 11.5 µM and the IC50 is > 11.5 µM.
Take `O=C(CSc1nnc(-c2ccc(Cl)cc2)s1)Nc1nccs1`: the EC50 is > 200 µM and the IC50 was > 200 µM.
Regarding `O=C1OCCN1N1C(=O)CC2(CCN(Cc3ccccc3)CC2)C1=O`, the EC50 is > 200 µM and the IC50 was > 200 µM.
`CC(C)(C)[Si](C)(C)OCC1OC(n2cnc3c(=O)[nH]c(NCc4cccc5ccccc45)nc32)C(O[Si](C)(C)C(C)(C)C)C1O[Si](C)(C)C(C)(C)C` (stereo not given): the EC50 is > 200 µM and the 50% inhibitory concentration (IC50) is > 200 µM.
As for `COc1ccc(-c2c(C#N)c(N)n(C3OCC(OC(C)=O)C(OC(C)=O)C3OC(C)=O)c(=S)c2C#N)cc1` (stereo not given), the EC50 is > 200 µM; the IC50 was 20.9 µM and 29.5 µM.
For the compound `Cc1nnc2n1-c1ccc(Cl)cc1C(c1ccccc1)=[N+]([O-])C2`, the EC50 is > 398 µM and the 50% inhibitory concentration (IC50) stood at 355 µM.
The like results for `O=C(OCC(Cl)(Cl)Cl)N1CC[C@@H](C2CCCCC2)C1` were, in that order, > 200 µM and 52.5 µM.
Take `c1ccc2[nH]c(-c3nc4ccccc4o3)nc2c1`: the EC50 is > 15.8 µM and the IC50 was > 15.8 µM.
For `COc1ccc(C2SCC(=O)N2NC(=O)c2ccc(NC(C)=O)cc2)c(OC)c1` (stereo not given), the EC50 is > 63.1 µM and the IC50 was > 63.1 µM.
For `Cn1cnc2[nH]c(=O)n(O)c(=O)c21`, the EC50 is > 200 µM and the 50% inhibitory concentration (IC50) was 35.5 µM.
For the compound `CCOc1ncnc2ccc(Cl)c(I)c12`, the EC50 was > 77.6 µM and the half-inhibitory concentration (IC50) was > 77.6 µM.
Turning to `O=C1c2cccc(O)c2C(=O)c2c(O)cccc21`, the EC50 was > 30.2 µM and the half-maximal inhibitory concentration (IC50) was > 30.2 µM.
Regarding `O=C(CSc1nc(-c2ccccc2)c(-c2ccccc2)[nH]1)N/N=C/c1ccc(O)cc1`, the EC50 is > 43.7 µM and the half-maximal inhibitory concentration (IC50) was 9.77 µM.
The like results for `CC(=O)OC1CSc2ccccc2N(C(C)=O)C1` (stereo not given) were, in that order, > 355 µM and > 355 µM.
Consider `CC1CN=C(Nc2cccc(C(F)(F)F)c2)S1` (stereo not given), for which the EC50 is > 200 µM and the 50% inhibitory concentration (IC50) is 57.5 µM.
The like results for `CC(=O)[O-].[Mn+3].[O-]c1ccccc1C=NCCNCCN=Cc1ccccc1[O-]` were, in that order, > 182 µM and 10.5 µM.
As to `CCN(C(=S)N[C@@H](Cc1ccccc1)C(=O)N[C@@H](CC(C)C)C(=O)OC)c1ccccc1`, the EC50 is > 200 µM and the IC50 stood at 25.7 µM.
The like results for `O=C(O)C1=CN(c2ccncc2)C(c2ccco2)=CC1c1ccccc1[N+](=O)[O-]` (stereo not given) were, in that order, > 200 µM and 4.79 µM.
For `CON(C)C(=O)CCCO`, the EC50 was > 1700 µM and the 50% inhibitory concentration (IC50) is > 1700 µM.
With `CN(C)CCn1nc2n(c(=O)c1=O)CC(=O)N(C)c1ccc(Cl)cc1-2`, the EC50 was > 407 µM and the concentration for half-maximal inhibition (IC50) was > 407 µM.
On to `O=C1C=CC(=O)c2c1ccc1c3ccccc3n(CCCCCCCCn3c4ccccc4c4ccc5c(c43)C(=O)C=CC5=O)c21`, for which the EC50 is > 100 µM and the 50% inhibitory concentration (IC50) was determined as 52.5 µM.
On to `C=CCc1c(O)c2ccccc2[nH]c1=O`, for which the EC50 was > 200 µM and the half-maximal inhibitory concentration (IC50) was > 200 µM.
For `COc1ccc2[nH]c3c(c2c1)CC(=S)N1CCCC(CC3=O)C1` (stereo not given), the EC50 was > 200 µM and the IC50 is 61.7 µM.
The like results for `COC(=O)C1OS(=O)(=O)OC1C(=O)OC` (stereo not given) were, in that order, > 200 µM and > 200 µM.
As for `CCOC(=O)c1c2cccccc2n2c(=O)cc(C)nc12`, the outcome was inactive.
As for `CC1(c2ccc3ccccc3c2)OC(=O)c2cccc(F)c21` (stereo not given), the outcome was inactive.
For `CC(=O)OC1COC(Nc2nc(N)n(C)c(=O)c2N=O)C(OC(C)=O)C1OC(C)=O` (stereo not given), the EC50 is > 200 µM and the IC50 was > 200 µM.
`O=C1CSc2ccnc(=O)n21`: the EC50 is > 200 µM and the IC50 was > 200 µM.
As to `CC12CCC3C(CCC4=CC(=O)C=CC43C)C1CC(O)C(=O)O2` (stereo not given), the EC50 is > 200 µM and the IC50 was > 200 µM.
`COc1ccc(C2NC3=C(CCCC3)N2)cc1`: the EC50 was > 155 µM and the half-inhibitory concentration (IC50) came out at 26.3 µM.
The like results for `C/C(CC(=O)Nc1ccc(C)cc1)=N\NC(N)=S` were, in that order, > 490 µM and 245 µM.
For the compound `CCOC(=O)c1ccc(-n2nc(C)cc(Cl)c2=O)cc1`, the EC50 was > 123 µM and the IC50 is 23.4 µM.
With `O=C1CCCCCN1C(=O)c1ccccc1`, the EC50 is > 1150 µM and the IC50 is 53.7 µM.
The like results for `CC(=O)OCC1OC(SC2=N/C(=C\c3ccc(Br)s3)C(=O)N2CN2CCOCC2)C(OC(C)=O)C(OC(C)=O)C1OC(C)=O` (stereo not given) were, in that order, > 200 µM and 9.33 µM.
The like results for `COc1ccc(C2CC(=O)c3c(O)cc(OC4OC(COC5OC(C)C(O)C(O)C5O)C(O)C(O)C4O)cc3O2)cc1O` (stereo not given) were, in that order, 138 µM and 191 µM.
The like results for `S=C(NNC1=NCCCN1)Nc1ccccc1` were, in that order, > 200 µM and 12.6 µM.
For the compound `CN1CCCC2[C@@H]3CCC4=C(O)C(=O)CC[C@]4(C)C3CC[C@@]21C` (stereo not given in full), the EC50 was > 74.1 µM and the IC50 was > 74.1 µM.
On to `CCCC(O)c1cn(-c2cccc(S(=O)(=O)O)c2)nn1` (stereo not given), for which the EC50 is > 832 µM and the IC50 was > 832 µM.
On to `COc1cc(/C=C/C(=O)CC(=O)/C=C/c2ccc(O)c(OC)c2)ccc1O`, for which the EC50 was > 200 µM; the concentration for half-maximal inhibition (IC50) was 19.1 µM and 75.9 µM.
In the case of `O=C1NCCN1/N=C/c1ccc([N+](=O)[O-])o1`, the EC50 was > 200 µM and the 50% inhibitory concentration (IC50) came to 120 µM.
For the compound `COC(=O)CCC1(C)C2CCC1/C(=N/O)C2` (stereo not given), the EC50 is > 200 µM and the IC50 is > 200 µM.
As to `CN(C)CCOc1ccc([N+](=O)[O-])c2cccnc12`, the EC50 is > 100 µM and the IC50 was determined as 50.1 µM.
In the case of `COC(=O)/C=C1\C[C@H]2O[C@@](O)(C1)[C@H](C)C(=O)O[C@H]1C[C@@H](C=C(C)C)O[C@@H](CC3(O)O[C@H](CC[C@H]2O)[C@@H](C)[C@]2(O)CC[C@@H](C)C(=O)C32)[C@H]1C` (stereo not given in full), the result was inactive.
For the compound `COc1cccc(C2c3cc4c(cc3OC(NNS(=O)(=O)c3ccc(C)cc3)C2C)OCO4)c1OC` (stereo not given), the EC50 was > 200 µM and the half-maximal inhibitory concentration (IC50) came to 1.86 µM.
The like results for `O=Nc1c(Br)cc(Br)c2ccc3c(Br)cc(Br)c(N=O)c3c12` were, in that order, > 50.1 µM and > 50.1 µM.
The like results for `S=C(NCCNC(=S)SSC(=S)NNc1ccccc1)SSC(=S)NNc1ccccc1` were, in that order, > 200 µM and 17.4 µM.
With `COC1=CC(=O)c2nc(C)ccc2C1=O`, the outcome was inactive.
Regarding `Cc1ccc(SCC(CF)OC(C)n2cnc3c(Cl)nc(N)nc32)cc1` (stereo not given), the EC50 was > 200 µM and the IC50 was found to be 38 µM.
The like results for `O=C1OCC23CCC4C1C42CC1(CC3)OCCO1` (stereo not given) were, in that order, > 200 µM and > 200 µM.
The like results for `O=c1ccc2ccc(S)cc2o1` were, in that order, > 200 µM and 32.4 µM.
The like results for `CNC(=O)c1ncn(C2OC(CO)C(O)C2O)n1` (stereo not given) were, in that order, > 200 µM and > 200 µM.
Consider `CCC(C#N)(c1ccccc1)N(CCc1ccccc1)C(=O)c1ccccc1` (stereo not given), for which the EC50 is > 200 µM and the IC50 was found to be 191 µM.
The like results for `C/C(CC(=O)Nc1ccc(NC(=O)/C(C)=N/NS(=O)(=O)c2ccc(C)cc2)cc1)=N\NS(=O)(=O)c1ccc(C)cc1` were, in that order, > 158 µM and > 158 µM.
As for `CC1C2(C)OC(=N)C(C#N)(C(c3ccco3)O2)C1(C#N)C#N` (stereo not given), the EC50 was > 200 µM and the IC50 turned out to be 14.5 µM.
The like results for `ClC/C=C/C[P+](c1ccccc1)(c1ccccc1)c1ccccc1` were, in that order, > 200 µM and 3.16 µM.
The like results for `CC1(C)CNC[C@](C)(OCCOC(c2ccccc2)(c2ccccc2)c2ccccc2)C(=O)NC(C)(C)CNC[C@@](C)(OCCOC(c2ccccc2)(c2ccccc2)c2ccccc2)C(=O)N1` were, in that order, > 200 µM and > 200 µM.
The like results for `CC1(C)Nc2cccc3c(N=Nc4ccc(N=Nc5ccccc5)c5ccccc45)ccc(c23)N1` were, in that order, > 200 µM and 26.3 µM.
Regarding `Cn1ccnc1.Cn1ccnc1.[O-][Cl+3]([O-])([O-])[O-].[Pt+2].c1ccc(-c2ccccn2)nc1`, the EC50 was > 200 µM and the concentration for half-maximal inhibition (IC50) is > 200 µM.
On to `CC(=O)NC(CCCCNC(=O)OCc1ccccc1)C(=O)NCc1ccccc1` (stereo not given), for which the EC50 was > 87.1 µM and the IC50 is > 87.1 µM.
As for `CC(C)(C)OC(=O)NC(Cc1ccccc1)OCc1ccccc1` (stereo not given), the EC50 is > 200 µM and the IC50 is 45.7 µM.
The like results for `OC(CC(O)(C(F)(F)F)C(F)(F)F)c1cccs1` (stereo not given) were, in that order, > 200 µM and 93.3 µM.
The like results for `O=C(N1CCN(CCO)CC1)N1c2ccccc2Sc2ccccc21` were, in that order, > 200 µM and 117 µM.
The like results for `COC(=O)C1=C(C(=O)OC)N(c2ccncc2)C(c2ccco2)=CC1c1ccccc1[N+](=O)[O-]` (stereo not given) were, in that order, > 74.1 µM and 7.24 µM.
